For one data set, the target named is T1, hTLR9 (Homo sapiens, UniProt Q9NR96).
T1 sequence (Q9NR96 26-1032): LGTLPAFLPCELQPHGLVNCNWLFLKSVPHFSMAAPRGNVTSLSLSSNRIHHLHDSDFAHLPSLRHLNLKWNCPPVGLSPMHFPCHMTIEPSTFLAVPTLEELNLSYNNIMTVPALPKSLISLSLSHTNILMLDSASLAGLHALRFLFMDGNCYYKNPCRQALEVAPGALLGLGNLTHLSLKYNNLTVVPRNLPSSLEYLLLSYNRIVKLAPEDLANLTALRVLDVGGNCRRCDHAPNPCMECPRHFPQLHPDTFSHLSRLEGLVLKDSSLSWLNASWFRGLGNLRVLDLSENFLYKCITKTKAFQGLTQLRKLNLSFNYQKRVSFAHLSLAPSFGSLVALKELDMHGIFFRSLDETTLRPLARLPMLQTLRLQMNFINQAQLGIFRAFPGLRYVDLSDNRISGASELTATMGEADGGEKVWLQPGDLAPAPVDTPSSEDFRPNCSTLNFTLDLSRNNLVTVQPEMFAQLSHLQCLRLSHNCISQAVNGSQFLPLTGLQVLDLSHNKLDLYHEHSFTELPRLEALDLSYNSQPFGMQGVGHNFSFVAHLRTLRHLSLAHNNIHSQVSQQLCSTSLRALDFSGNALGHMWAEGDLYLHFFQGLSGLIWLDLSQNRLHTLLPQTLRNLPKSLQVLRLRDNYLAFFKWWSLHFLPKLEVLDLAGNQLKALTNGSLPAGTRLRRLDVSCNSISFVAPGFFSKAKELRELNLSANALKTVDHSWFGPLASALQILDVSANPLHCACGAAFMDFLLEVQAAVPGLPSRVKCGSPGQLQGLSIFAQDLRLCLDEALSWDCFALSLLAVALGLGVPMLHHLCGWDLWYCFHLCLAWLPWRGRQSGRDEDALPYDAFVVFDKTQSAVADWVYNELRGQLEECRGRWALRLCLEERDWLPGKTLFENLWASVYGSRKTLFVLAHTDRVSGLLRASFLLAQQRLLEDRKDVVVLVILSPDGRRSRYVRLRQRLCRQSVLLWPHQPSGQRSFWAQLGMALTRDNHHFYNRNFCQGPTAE
As to the kind of experiment: HEK293-Blue-hTLR-9 cells assay. The format is cell-based. Also noted: host or cells: HEK293-Blue-hTLR-9 (HEK293). The note with it: HEK293-Blue-hTLR9 cells, ODN2006 stimulation, 20 hrs, SEAP reporter; read-out: HEK/hTLR9 IC50. Here is the method:
The following tests were carried out in order to determine the activity of the compounds of formula (I) and (Ia) in HEK293-Blue-hTLR-7/8/9 cells assay.
HEK293-Blue-hTLR-9 cells assay:
A stable HEK293-Blue-hTLR-9 cell line was purchased from InvivoGen (Cat. #: hkb-htlr9, San Diego, Calif., USA). These cells were originally designed for studying the stimulation of human TLR9 by monitoring the activation of NE-KB. A SEAP (secreted embryonic alkaline phosphatase) reporter gene was placed under the control of the IFN-β minimal promoter fused to five NE-κB and AP-1-binding sites. The SEAP was induced by activating NE-κB and AP-1 via stimulating HEK-Blue hTLR9 cells with TLR9 ligands. Therefore the reporter expression was declined by TLR9 antagonist under the stimulation of a ligand, such as ODN2006 (Cat. #: tlrl-2006-1, Invivogen, San Diego, Calif., USA), for incubation of 20 hrs. The cell culture supernatant SEAP reporter activity was determined using QUANTI-Blue™ kit (Cat. #: rep-qb1, Invivogen, San Diego, Calif., USA) at a wavelength of 640 nm, a detection medium that turns purple or blue in the presence of alkaline phosphatase.
HEK293-Blue-hTLR9 cells were incubated at a density of 250,000˜450,000 cells/mL in a volume of 170 μL in a 96-well plate in Dulbecco's Modified Eagle's medium (DMEM) containing 4.5 g/L glucose, 50 U/mL penicillin, […], […], 2 mM L-glutamine, 10% (v/v) heat-inactivated fetal bovine serum with addition of 20 μL test compound in a serial dilution in the presence of final DMSO at 1% and 10 μL of 20 uM ODN2006 in above DMEM, perform incubation under 37° C. in a CO2 incubator for 20 hrs. Then 20 μL of the supernatant from each well was incubated with 180 μL Quanti-blue substrate solution at 37° C. for 2 h and the absorbance was read at 620˜655 nm using a spectrophotometer. The signaling pathway that TLR9 activation leads to downstream NE-κB activation has been widely accepted, and therefore similar reporter assay was modified for evaluating TLR9 antagonist.

For another data set, the target named is T2, CYP2D6 (Homo sapiens, UniProt P10635).
T2 construct: tissue BD-Gentest 452117; host or cells: human liver microsomes
T2 sequence (P10635 whole entry): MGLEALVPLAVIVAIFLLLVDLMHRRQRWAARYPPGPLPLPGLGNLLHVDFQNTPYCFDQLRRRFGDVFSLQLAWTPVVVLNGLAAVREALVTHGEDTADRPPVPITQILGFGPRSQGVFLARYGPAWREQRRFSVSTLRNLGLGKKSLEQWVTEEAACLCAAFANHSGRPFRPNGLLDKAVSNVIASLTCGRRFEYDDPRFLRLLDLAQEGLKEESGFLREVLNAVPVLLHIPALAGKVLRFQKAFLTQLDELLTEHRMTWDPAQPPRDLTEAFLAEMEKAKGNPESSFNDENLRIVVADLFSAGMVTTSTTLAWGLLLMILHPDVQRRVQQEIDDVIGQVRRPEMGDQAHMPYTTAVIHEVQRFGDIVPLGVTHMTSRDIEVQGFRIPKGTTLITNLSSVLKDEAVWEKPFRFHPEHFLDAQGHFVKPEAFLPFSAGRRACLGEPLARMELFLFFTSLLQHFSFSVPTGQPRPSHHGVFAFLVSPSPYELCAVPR
As to the kind of experiment: CYP inhibition assay in human liver microsome. The format is in vitro ADME. The note with it: human liver microsomes, probe dextromethorphan, dextromethorphan substrate, percentage inhibition <0: not or weak inhibitor, read-out: CYP 2D6 inhibition %@10 μM. The method, boiled down:
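Reversible CYP2D6 inhibition tested in human liver microsomes with substrate, NADPH-started, 10 min at 37° C; compound from 2 mM intermediate DMSO stock. Metabolite measured by RapidFire MS/MS against D3-dextrorphan internal standard; % inhibition scaled between DMSO controls and concentrated standard inhibitor.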

For three compounds, IC50 and inhibition results are on record in US20210269451A1, “PYRIDINYL HETEROCYCLYL COMPOUNDS FOR THE TREATMENT OF AUTOIMMUNE DISEASE” (Hoffmann-La Roche Inc., priority 2018, published 2021).

As to `Cc1cc(N2CCN(C[C@H]3CN(c4ccc(C#N)c5ncccc45)C[C@@H](C)O3)CC2)cc(CO)n1` [Example 50], the IC50 at hTLR9 amounted to 134 nM. Besides, the inhibition (in general, the change of the read-out against control, counted positive when it falls) at 10 min, 10 μM at CYP2D6 came to 10.5%.
Take `Cc1cc(N2CCOC3CN(CC4CN(c5ccc(C#N)c6ncccc56)CC(C)O4)CC32)cc(C)n1` (single isomer, unassigned) [Example 17B]: the IC50 on hTLR9 is under 32 nM. Moreover, the inhibition at 10 min, 10 μM at CYP2D6 was 5%.
`Cc1cc(N(C)C2CN(C[C@H]3CN(c4ccc(C#N)c5ncccc45)C[C@@H](C)O3)C2)cc(C)n1` [Example 11]: at hTLR9, the IC50 turned out to be 40 nM. Further, the inhibition at 10 min, 10 μM on CYP2D6 was -7.5%.
